Experimental data: patent US8980542B2, “Arginine-containing compositions and methods for treating red blood cells” (Viacell, LLC, priority 2010, dated 2015)
Each block holds one compound with its values, some of them ahead of it.

Tests used:
[1] = test system: stored RBCs; assay: 2,3-DPG level of stored RBCs after incubation with storage and/or rejuvenating composition (Roche 2,3-DPG kit); type: cell-based; conditions: 60 minutes at 37° C.
Protocol: A storage and/or rejuvenating composition that includes D-ribose, inosine, sodium pyruvate, and inorganic phosphate, all at a 300 mM concentration as a slurry was prepared. When used to store and/or rejuvenate RBCs, the slurry is diluted 30-fold to a final concentration of 10 mM to form a solution. […] In a study, RBCs were collected and stored for an average of 21 days at 4° C. according to standard blood banking practice. Various RBC storage and/or rejuvenating compositions were added to the 21-day old stored RBCs and held at 37° C. for one to four hours before being tested for 2,3-DPG concentrations. […] A normal 2,3-DPG concentration of RBC immediately upon harvest is 4.0 μmol/ml. […] An increase to 1.0 μmol/ml is considered a significant improvement.
Experimental protocols were designed to find methods to increase the solubility of inosine. […] A storage and/or rejuvenating composition including 300 mM each of inosine, L-arginine, sodium pyruvate, D-ribose, and inorganic phosphate was diluted 30-fold into 21-day old stored RBCs. One set of stored blood samples was incubated for 60 minutes at room temperature and another was incubated for 60 minutes at 37° C.

[2] = Solubility of nucleoside in the composition; type: physicochemical; conditions: equimolecular solution with L-arginine, room temperature

SMILES: O=C[C@H](O)[C@H](O)[C@H](O)COP(=O)(O)O [ribose-5-phosphate]
- Rejuvenation ([1]; inosine replaced by varying concentrations of the substance in composition with 10 mM each D-ribose, sodium pyruvate, inorganic phosphate): not observed

SMILES: Nc1nc2c(ncn2[C@@H]2O[C@H](CO)[C@@H](O)[C@H]2O)c(=O)[nH]1 [Guanosine]
- Rejuvenation ([1]; guanosine with 10 mM each inorganic phosphate and D-ribose, no sodium pyruvate): observed

- concentration at which inosine remained in solution [2]: above 50 mM
SMILES: OC[C@H]1O[C@@H](n2cnc3c(O)ncnc32)[C@H](O)[C@@H]1O [inosine]
